Measured values from patent US20230212549A1, “COMPOUNDS COMPRISING A […] LIGAND AND USE THEREOF” (priority 2021, published 2023).
Numbered stars: 1 amine (or outer) side, 2 acyl side, 3 side chain; on linkers, the order of the positions; unused ones are H or OH. Bridge positions count the residues as written; N and C are the ends. Square brackets hold non-standard residues; d marks the D form. Peptide text beside a SMILES is read from it. * marks the point of attachment. X13 = O=C(O)CN1CCN(CC(=O)O)CCN(CC(=O)N2CCN(Cc3cc(C[*:1])cc(C[*:2])c3)CC2)CCN(CC(=O)O)CC1; X12 = O=C(O)CN1CCN(CC(=O)O)CCN(CC(=O)NCCCOCCOCCOCCCN*)CCN(CC(=O)O)CC1; mXylylene = c1cc(C[*:1])cc(C[*:2])c1; Suc = O=C(CCC(=O)[*:2])[*:1]; Nle = CCCC[C@H](N)C(=O)O; Hexanoyl = CCCCCC(=O)*; Mpa = O=C(O)CCS

Assays:
5-HT2B (h) = 5-HT2B (h) (Homo sapiens, UniProt P41595); conditions: read-out: Ki Ref; reference compound (positive control)
recombinant human PREP = target: T1, recombinant human PREP (Homo sapiens, UniProt P48147); test: PREP protease activity assay; type: biochemical
T1 construct: purchased R&D systems 4308-SE
T1 sequence (P48147 1-710): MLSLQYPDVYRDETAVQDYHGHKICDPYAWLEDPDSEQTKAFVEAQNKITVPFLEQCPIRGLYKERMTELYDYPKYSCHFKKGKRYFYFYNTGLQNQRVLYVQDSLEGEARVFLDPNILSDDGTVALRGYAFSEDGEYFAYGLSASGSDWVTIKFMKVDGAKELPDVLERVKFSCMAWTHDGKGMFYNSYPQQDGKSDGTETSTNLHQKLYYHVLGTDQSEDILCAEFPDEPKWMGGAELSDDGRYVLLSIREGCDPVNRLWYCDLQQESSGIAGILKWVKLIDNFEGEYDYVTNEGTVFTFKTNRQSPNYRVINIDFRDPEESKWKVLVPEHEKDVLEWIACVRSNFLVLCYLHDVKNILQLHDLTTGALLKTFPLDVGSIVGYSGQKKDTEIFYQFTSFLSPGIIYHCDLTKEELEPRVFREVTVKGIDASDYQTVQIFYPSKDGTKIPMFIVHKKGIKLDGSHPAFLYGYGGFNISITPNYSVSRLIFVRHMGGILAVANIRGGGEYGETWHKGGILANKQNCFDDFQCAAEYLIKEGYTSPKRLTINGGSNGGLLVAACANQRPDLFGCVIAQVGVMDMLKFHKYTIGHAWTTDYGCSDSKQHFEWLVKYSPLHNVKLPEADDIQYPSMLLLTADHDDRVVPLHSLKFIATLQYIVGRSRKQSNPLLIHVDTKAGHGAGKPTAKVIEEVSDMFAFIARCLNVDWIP

Human recombinant FAP [1] = target: T2, Human recombinant FAP (Homo sapiens, UniProt Q12884); test: Surface plasmon resonance (Biacore) assay; type: binding
Recombinant human DPP4 = target: T3, Recombinant human DPP4 (Homo sapiens, UniProt P27487); test: DPP4 protease activity assay; type: biochemical
T3 construct: purchased R&D systems 9168-SE

Human recombinant FAP [2] = target: T2, Human recombinant FAP; test: FRET-based FAP protease activity assay; type: biochemical; design: purchased R&D systems 3715-SE
[3] = Plasma stability assay, mouse plasma; type: in vitro ADME; conditions: 4 h incubation, 37° C.
[4] = target: T4, FAP-expressing human WI-38 fibroblasts (Homo sapiens, UniProt Q12884); test: Competitive FACS binding assay
T4 construct: FAP-expressing human WI-38 fibroblasts (ECACC) were cultured in EMEM; host or cells: WI-38 human fibroblasts
Method: Cells were analyzed in an Attune NxT flow cytometer. […] […].
Cells were analyzed in an Attune NxT flow cytometer. […]

[5] = target: Ca2+ channel (L, dihydropyridine site) (Rattus norvegicus, UniProt P22002); test: biochemical; conditions: read-out: % Inhibition of Specific Binding
[6] = 24 h incubation, 37° C.
[7] = 24 h incubation, 37° C.; remark: listed apart in the source
HEK-FAP tumor = test: SPECT imaging and biodistribution of ^111In-labelled compounds in mice with HEK-FAP tumors; type: in vivo; conditions: FIG. 21
[8] = In vivo SPECT/CT imaging of ^111In-3BP-4560 in mice; conditions: ^111In-labelled, FIG. 28
NMDA = conditions: read-out: Ki Ref; reference compound (positive control)
proteases [9] = target: T5, proteases (Homo sapiens, UniProt P42574); type: biochemical; conditions: Caspase-3; Reference at 100 nM
T5 construct: BPS Biosciences (ran the screen)

proteases [10] = target: T6, proteases (Homo sapiens, UniProt P55210); type: biochemical; conditions: Caspase-7; Reference at 1 μM
T6 construct: BPS Biosciences (ran the screen)

alpha 1A (h) = alpha 1A (h) (Homo sapiens, UniProt P35348); conditions: read-out: Ki Ref; reference compound (positive control)
Sarc4809 PDX tumors = test: Efficacy study, sarcoma Sarc4809 PDX model; conditions: throughout the study, 30 or 60 MBq
HEK-FAP tumors = test: Efficacy study, HEK-FAP tumor model; conditions: throughout the study, 30 or 60 MBq
proteases [11] = target: T7, proteases (Homo sapiens, UniProt Q9UBX1); type: biochemical; conditions: Cathepsin F; Reference at 1 μM
T7 construct: BPS Biosciences (ran the screen)

[12] = system: metastatic colorectal cancer; conditions: patients with metastatic colorectal cancer, Phase I and II clinical trials; cited from earlier work
KV channel = conditions: read-out: Ki Ref; reference compound (positive control)
[13] = pIC50 Category (Activity), FRET-based FAP protease activity assay, recombinant human FAP, 37° C.
[14] = pIC50 Category (Activity), FRET-peptide substrate, 37° C.

T3 sequence (P27487 whole entry): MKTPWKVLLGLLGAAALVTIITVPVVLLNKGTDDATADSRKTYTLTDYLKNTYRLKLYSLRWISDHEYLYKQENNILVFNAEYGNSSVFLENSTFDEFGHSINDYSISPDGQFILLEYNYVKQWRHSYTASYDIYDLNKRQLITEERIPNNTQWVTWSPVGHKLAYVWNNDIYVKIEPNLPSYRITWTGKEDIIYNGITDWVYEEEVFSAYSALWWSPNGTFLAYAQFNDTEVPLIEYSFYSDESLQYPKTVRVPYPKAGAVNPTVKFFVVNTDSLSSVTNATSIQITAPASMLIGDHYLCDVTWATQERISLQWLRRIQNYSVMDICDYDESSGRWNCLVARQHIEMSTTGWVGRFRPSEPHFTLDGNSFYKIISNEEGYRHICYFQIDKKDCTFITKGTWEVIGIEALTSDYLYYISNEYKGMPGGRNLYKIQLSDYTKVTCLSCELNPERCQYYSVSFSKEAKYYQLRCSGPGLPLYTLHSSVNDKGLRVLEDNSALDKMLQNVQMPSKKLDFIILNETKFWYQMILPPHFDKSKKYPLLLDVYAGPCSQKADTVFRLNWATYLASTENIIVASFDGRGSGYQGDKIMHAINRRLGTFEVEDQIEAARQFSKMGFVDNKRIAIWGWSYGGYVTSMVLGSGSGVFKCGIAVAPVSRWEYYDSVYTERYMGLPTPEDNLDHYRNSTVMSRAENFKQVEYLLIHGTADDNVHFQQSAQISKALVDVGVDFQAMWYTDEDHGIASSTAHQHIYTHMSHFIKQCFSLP
T4 sequence (Q12884 whole entry): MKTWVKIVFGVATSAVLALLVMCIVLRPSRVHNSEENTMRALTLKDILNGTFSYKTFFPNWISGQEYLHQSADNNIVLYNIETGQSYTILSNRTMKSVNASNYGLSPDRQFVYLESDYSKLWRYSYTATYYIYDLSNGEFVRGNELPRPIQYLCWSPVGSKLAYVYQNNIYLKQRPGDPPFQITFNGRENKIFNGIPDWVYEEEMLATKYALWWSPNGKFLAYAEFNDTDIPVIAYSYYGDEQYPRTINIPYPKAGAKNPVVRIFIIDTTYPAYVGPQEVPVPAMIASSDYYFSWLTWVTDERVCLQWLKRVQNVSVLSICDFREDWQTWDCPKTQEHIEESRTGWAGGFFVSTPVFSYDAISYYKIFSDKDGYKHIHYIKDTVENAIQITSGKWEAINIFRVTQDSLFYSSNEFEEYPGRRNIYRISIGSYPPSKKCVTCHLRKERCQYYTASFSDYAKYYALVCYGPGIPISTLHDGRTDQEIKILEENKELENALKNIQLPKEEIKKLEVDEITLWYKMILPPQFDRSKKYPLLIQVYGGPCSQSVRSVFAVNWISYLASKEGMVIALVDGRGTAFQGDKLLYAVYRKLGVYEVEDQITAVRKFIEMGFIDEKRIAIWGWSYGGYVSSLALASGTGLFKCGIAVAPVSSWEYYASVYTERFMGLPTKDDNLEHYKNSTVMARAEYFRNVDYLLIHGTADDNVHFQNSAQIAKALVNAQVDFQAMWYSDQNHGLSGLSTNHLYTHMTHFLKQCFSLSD
T2 sequence (Q12884 whole entry): as above
Chain of Ca2+ channel (L, dihydropyridine site) (P22002 whole entry): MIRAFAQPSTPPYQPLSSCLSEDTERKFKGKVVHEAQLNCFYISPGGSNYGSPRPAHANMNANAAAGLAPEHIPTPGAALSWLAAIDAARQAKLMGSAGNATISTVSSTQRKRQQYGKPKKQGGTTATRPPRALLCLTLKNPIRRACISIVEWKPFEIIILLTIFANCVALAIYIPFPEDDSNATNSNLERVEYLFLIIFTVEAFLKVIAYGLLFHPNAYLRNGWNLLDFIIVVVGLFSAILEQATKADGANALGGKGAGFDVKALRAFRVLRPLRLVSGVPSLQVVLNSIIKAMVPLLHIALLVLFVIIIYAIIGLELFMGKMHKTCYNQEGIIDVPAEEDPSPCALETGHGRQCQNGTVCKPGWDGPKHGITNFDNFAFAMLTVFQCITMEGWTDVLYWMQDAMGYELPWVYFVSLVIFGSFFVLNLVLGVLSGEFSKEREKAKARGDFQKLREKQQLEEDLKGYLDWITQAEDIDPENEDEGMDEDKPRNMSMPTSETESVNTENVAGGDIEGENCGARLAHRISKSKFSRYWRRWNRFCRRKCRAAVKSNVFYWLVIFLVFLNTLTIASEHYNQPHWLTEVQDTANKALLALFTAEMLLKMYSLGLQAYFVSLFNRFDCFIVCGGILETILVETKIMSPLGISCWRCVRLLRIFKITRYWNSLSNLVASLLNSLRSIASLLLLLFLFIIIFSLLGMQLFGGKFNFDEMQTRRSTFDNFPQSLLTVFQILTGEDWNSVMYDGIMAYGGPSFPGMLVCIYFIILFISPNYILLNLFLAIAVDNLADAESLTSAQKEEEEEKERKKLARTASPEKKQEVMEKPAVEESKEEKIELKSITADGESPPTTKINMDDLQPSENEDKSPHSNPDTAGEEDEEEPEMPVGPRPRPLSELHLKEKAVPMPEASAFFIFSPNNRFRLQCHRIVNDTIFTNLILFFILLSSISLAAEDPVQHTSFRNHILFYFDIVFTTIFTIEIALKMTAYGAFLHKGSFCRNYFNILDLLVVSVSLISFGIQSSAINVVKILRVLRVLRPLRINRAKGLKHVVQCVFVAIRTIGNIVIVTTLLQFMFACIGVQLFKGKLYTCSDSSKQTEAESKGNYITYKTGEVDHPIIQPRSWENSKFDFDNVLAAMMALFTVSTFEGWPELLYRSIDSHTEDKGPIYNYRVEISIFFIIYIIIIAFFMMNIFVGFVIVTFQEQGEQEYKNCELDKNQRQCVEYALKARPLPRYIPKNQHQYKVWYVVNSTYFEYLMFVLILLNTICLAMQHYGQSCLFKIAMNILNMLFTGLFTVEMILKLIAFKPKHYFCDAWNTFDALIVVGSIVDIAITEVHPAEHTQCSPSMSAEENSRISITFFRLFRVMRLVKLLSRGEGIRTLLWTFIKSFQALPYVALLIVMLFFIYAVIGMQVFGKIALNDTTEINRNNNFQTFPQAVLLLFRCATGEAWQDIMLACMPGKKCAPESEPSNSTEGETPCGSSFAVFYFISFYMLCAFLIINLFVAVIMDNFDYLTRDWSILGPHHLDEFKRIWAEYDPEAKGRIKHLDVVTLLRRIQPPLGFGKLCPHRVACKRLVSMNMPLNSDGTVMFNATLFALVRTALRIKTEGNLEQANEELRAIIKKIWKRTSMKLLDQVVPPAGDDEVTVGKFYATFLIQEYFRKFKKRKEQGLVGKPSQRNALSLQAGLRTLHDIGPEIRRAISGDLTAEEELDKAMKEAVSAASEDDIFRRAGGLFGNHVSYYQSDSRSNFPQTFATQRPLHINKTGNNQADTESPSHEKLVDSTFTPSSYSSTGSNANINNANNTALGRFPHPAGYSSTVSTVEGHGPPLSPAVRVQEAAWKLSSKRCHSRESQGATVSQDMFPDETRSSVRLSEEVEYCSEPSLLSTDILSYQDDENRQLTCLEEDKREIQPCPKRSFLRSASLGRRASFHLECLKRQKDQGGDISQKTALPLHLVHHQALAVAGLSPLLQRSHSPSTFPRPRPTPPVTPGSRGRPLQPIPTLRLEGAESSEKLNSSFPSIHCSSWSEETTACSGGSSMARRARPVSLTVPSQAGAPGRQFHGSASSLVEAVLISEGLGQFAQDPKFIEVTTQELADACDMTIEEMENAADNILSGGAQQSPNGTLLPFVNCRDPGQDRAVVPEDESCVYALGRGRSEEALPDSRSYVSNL
T7 sequence (Q9UBX1 271-484): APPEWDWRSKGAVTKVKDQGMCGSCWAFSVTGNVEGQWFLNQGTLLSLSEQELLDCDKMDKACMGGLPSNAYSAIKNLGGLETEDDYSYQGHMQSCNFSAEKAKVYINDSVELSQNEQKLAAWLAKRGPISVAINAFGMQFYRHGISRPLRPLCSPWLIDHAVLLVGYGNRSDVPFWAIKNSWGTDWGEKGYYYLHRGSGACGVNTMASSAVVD
Chain of 5-HT2B (h) (P41595 whole entry): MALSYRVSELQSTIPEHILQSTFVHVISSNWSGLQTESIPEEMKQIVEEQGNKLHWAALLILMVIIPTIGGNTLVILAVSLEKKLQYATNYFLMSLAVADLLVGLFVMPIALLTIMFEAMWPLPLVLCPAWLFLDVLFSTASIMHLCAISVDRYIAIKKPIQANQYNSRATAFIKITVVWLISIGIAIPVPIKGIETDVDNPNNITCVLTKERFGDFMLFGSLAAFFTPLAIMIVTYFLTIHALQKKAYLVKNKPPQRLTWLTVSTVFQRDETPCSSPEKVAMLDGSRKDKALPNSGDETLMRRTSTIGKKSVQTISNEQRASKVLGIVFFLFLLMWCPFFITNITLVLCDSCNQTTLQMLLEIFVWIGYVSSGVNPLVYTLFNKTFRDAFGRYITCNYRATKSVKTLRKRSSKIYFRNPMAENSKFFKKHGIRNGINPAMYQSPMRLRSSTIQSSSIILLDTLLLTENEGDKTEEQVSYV
T6 sequence (P55210 whole entry): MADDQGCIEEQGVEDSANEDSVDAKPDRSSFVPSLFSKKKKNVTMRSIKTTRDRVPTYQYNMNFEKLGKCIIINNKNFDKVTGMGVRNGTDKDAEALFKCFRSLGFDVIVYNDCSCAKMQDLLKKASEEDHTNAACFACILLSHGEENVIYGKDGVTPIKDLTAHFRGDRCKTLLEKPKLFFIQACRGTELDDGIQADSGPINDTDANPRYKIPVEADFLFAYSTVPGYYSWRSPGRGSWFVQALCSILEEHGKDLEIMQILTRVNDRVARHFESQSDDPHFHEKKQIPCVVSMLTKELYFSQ
T5 sequence (P42574 29-277): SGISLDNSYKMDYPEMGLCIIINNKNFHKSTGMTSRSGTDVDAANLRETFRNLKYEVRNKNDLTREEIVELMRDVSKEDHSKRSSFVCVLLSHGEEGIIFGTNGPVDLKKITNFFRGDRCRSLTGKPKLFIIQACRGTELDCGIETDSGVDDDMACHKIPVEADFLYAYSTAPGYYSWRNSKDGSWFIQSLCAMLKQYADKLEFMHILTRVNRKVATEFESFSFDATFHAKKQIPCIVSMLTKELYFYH

Compound: COc1cc(CC(C)N)c(OC)cc1I (racemic) [(±)DOI]
- Ki (5-HT2B (h)): 4.2 nM

Compound: CCCC[C@H](NC(=O)CCC(=O)NCCCOCCOCCOCCCNC(=O)CN1CCN(CC(=O)O)CCN(CC(=O)O)CCN(CC(=O)O)CC1)C(=O)N[C@H]1CSCc2cccc(c2)CSC[C@@H](C(=O)N[C@@H](CC(=O)O)C(=O)N[C@@H](Cc2c[nH]cn2)C(=O)N[C@@H](Cc2ccccc2)C(=O)N[C@@H](CCCNC(=N)N)C(=O)N[C@@H](CC(=O)O)C(N)=O)NC(=O)[C@H](Cc2ccccc2)NC(=O)[C@H](CCC(=O)O)NC(=O)[C@H]([C@@H](C)O)NC(=O)[C@@H]2CCCN2C(=O)[C@@H]2CCCN2C1=O [3BP-3168, DOTA-Ttds-Nle-[Cys(3MeBn)-Pro-Pro-Thr-Glu-Phe-Cys]-Asp-His-Phe-Arg-Asp-NH2] ({X12-Suc}-[Nle]CPPTEFCDHFRD-NH2; linker 2-8 via mXylylene)
- IC50 (recombinant human PREP): > 1000 nM
- Kd (Human recombinant FAP [1]): < 10 nM
- IC50 (Recombinant human DPP4): > 1000 nM
- IC50 (Human recombinant FAP [2]; pIC50 (highest activity categories), text on Table 9 categories (FACS binding and FAP activity assay)): < 10 nM
- IC50 (Human recombinant FAP [2]; [13]): < 10 nM
- remaining at 4 h, 9.8 µM ([3]; mouse, plasma, read-out: % intact compound remaining after incubation, Mouse plasma): 100%
- IC50 [4]: < 10 nM

Compound: CCCC[C@H](NC(=O)CCC(=O)NCCCOCCOCCOCCCNC(=O)CN1CCN(CC(=O)O)CCN(CC(=O)O)CCN(CC(=O)O)CC1)C(=O)N[C@H]1CSCc2cccc(c2)CSC[C@@H](C(=O)N[C@@H](CC(=O)O)C(N)=O)NC(=O)[C@H](Cc2ccccc2)NC(=O)[C@H](CCC(=O)O)NC(=O)[C@H]([C@@H](C)O)NC(=O)[C@@H]2CCCN2C(=O)[C@@H]2CCCN2C1=O [3BP-3320, DOTA-Ttds-Nle-[Cys(3MeBn)-Pro-Pro-Thr-Glu-Phe-Cys]-Asp-NH2] ({X12-Suc}-[Nle]CPPTEFCD-NH2; linker 2-8 via mXylylene)
- IC50 (recombinant human PREP): > 1000 nM
- Kd (Human recombinant FAP [1]): < 10 nM
- IC50 (Recombinant human DPP4): > 1000 nM
- IC50 (Human recombinant FAP [2]; [13]): < 10 nM
- % intact compound remaining after incubation, Mouse plasma [3]: 75%
- IC50 [4]: 10 to 79.4 nM

Compound: CCCCCC(=O)N[C@H]1CSCc2cc(cc(CN3CCN(C(=O)CN4CCN(CC(=O)O)CCN(CC(=O)O)CCN(CC(=O)O)CC4)CC3)c2)CSC[C@@H](C(=O)N[C@@H](CC(=O)O)C(N)=O)NC(=O)[C@H](Cc2ccccc2)NC(=O)[C@H](CCC(N)=O)NC(=O)[C@H]([C@@H](C)O)NC(=O)[C@@H]2CCCN2C(=O)[C@@H]2CCCN2C1=O [3BP-3407, Hex-[Cys(tMeBn(DOTA-PP))-Pro-Pro-Thr-Gln-Phe-Cys]-Asp-NH2] (Hexanoyl-CPPTQFCD-NH2; linker 1-7 via X13)
- inhibition at 10 µM [5]: 42%
- % intact compound remaining after incubation, Rat plasma [6]: 100% (24 h)
- % intact compound remaining after incubation, Human plasma [7]: 100% (24 h)

Compound: C[C@@H](O)[C@@H]1NC(=O)[C@@H]2CCCN2C(=O)[C@@H]2CCCN2C(=O)CCSCc2cccc(c2)CSC[C@@H](C(=O)N[C@@H](CC(=O)O)C(N)=O)NC(=O)[C@H](Cc2ccccc2)NC(=O)[C@H](CCC(N)=O)NC1=O [3BP-3419, [3MeBn-Spa-Pro-Pro-Thr-Gln-Phe-Cys]-Asp-NH2] ([Mpa]PPTQFCD-NH2; linker 1-7 via mXylylene)
- IC50 (recombinant human PREP): > 1000 nM
- IC50 (Recombinant human DPP4): > 1000 nM
- IC50 (Human recombinant FAP [2]; [13]): 100 to 794 nM
- IC50 [4]: 100 to 794 nM

Compound: CCCCCC(=O)N[C@H]1CSCc2cc(CSCCNC(=O)CN3CCN(CC(=O)O)CCN(CC(=O)O)CCN(CC(=O)O)CC3)cc(c2)CSC[C@@H](C(=O)O)NC(=O)[C@H](Cc2ccccc2)NC(=O)[C@H](CCC(N)=O)NC(=O)[C@H]([C@@H](C)O)NC(=O)[C@@H]2CCCN2C(=O)[C@@H]2CCCN2C1=O [3BP-3554, Hex-[Cys(tMeBn(DOTA-AET))-Pro-Pro-Thr-Gln-Phe-Cys]-OH]
- inhibition at 10 µM [5]: 54%
- % intact compound remaining after incubation, Rat plasma [6]: 100% (24 h)
- % intact compound remaining after incubation, Human plasma [7]: 100% (24 h)

Compound: CCCCNC(=O)N[C@H]1CSCc2cc(CSCCNC(=O)CN3CCN(CC(=O)O)CCN(CC(=O)O)CCN(CC(=O)O)CC3)cc(c2)CSC[C@@H](C(=O)O)NC(=O)[C@H](Cc2ccccc2)NC(=O)[C@H](CCC(N)=O)NC(=O)[C@H]([C@@H](C)O)NC(=O)[C@@H]2CCCN2C(=O)[C@@H]2CCCN2C1=O [3BP-3940, nBu-CAyl-[Cys(tMeBn(DOTA-AET))-Pro-Pro-Thr-Gln-Phe-Cys]-OH]
- Kd (Human recombinant FAP [1]): < 10 nM
- pKD Category (Human recombinant FAP [1]; Biacore assay): A (Category A stands for pKD values >8.0)
- IC50 (Human recombinant FAP [2]; [14]): < 10 nM
- IC50 [4]: < 10 nM
- uptake in healthy tissues (biodistribution) (HEK-FAP tumor): very low uptake in healthy tissues

Compound: CCCCNC(=O)N[C@H]1CSCc2cc(CSCCNC(=O)CN3CCN(CC(=O)O)CCN(CC(=O)O)CCN(CC(=O)O)CC3)cc(c2)CSC[C@@H](C(N)=O)NC(=O)[C@H](Cc2ccccc2)NC(=O)[C@H](CCC(N)=O)NC(=O)[C@H]([C@@H](C)O)NC(=O)[C@@H]2CCCN2C(=O)[C@@H]2CCCN2C1=O [3BP-4560, nBu-CAyl-[Cys(tMeBn(DOTA-AET))-Pro-Pro-Thr-Gln-Phe-Cys]-NH2]
- uptake in healthy tissues (biodistribution) [8]: very low uptake in healthy tissues
- Kd (Human recombinant FAP [1]): < 10 nM
- IC50 (Human recombinant FAP [2]; [14]): < 10 nM
- IC50 [4]: < 10 nM

Compound: O=C(O)[C@@H]1C[C@H](CP(=O)(O)O)CCN1 [CGS 19755]
- Ki (NMDA): 140 nM

Compound: COC[C@@H]1CCCN1S(=O)(=O)c1ccc2c(c1)C(=O)C(=O)N2 [Caspase 3/7 Inhibitor I]
- Percentage inhibition (%) (proteases [9]): 89%
- Percentage inhibition (%) (proteases [10]): 92%

Compound: COc1cccc(OC)c1OCCNCC1COc2ccccc2O1 (stereo not drawn) [WB 4101]
- Ki (alpha 1A (h)): 0.24 nM

Compound: CCCCCC(=O)N[C@H]1CSCc2cc(CSCCNC(=O)CN3CCN(CC(=O)O)CCN(CC(=O)O)CCN(CC(=O)O)CC3)cc(c2)CSC[C@@H](C(=O)O)NC(=O)[C@H](Cc2ccccc2)NC(=O)[C@H](CCC(N)=O)NC(=O)[C@H]([C@@H](C)O)NC(=O)[C@@H]2CCCN2C(=O)[C@@H]2CCCN2C1=O [^177Lu-3BP-3554, metal not drawn]
- body weight loss (BWL) (Sarc4809 PDX tumors): No treatment-related body weight loss
- body weight loss (HEK-FAP tumors): No treatment-related body weight loss

Compound: Cystatin C
- Percentage inhibition (%) (proteases [11]): 74%

Compound: Sibrotuzumab
- patients having stable disease [12]: 2 out of 17

Compound: alpha-dendrotoxin
- Ki (KV channel): 0.097 nM
